Results taken from paper PMC8222713, “Variation of Two S3b Residues in KV4.1–4.3 Channels Underlies Their Different Modulations by Spider Toxin κ-LhTx-1” (Frontiers in Pharmacology, 2021).
Where a SMILES comes first, the peptide text is derived from it. Bridges are numbered along the chain shown (N, C = ends).

Legend:
[1] = tested on: KV4.1/P282T mutant; experiment: Whole-cell patch clamp, KV4.1/P282T in CHO-K1 cells; format: cell-based, mouse
Description: (§1) The cDNA of hKV1.1, hKV1.3, rKV1.4, hKV1.5, rKV2.1, hKV3.1–3.4, mKV4.1, rKV4.2, and rKV4.3 were subcloned in the eukaryotic expression vector pCDNA3.1 or pCMV-blank. Channel mutants were made by a site-directed mutation method. Briefly, a pair of oppositely directed primers with 15 bp overlap at their 5′ ends and the designed mutation site were used to amplify the parental channel plasmid, then the PCR mix was treated with DpnI to remove the template. 10 μL digestion mix was directly used to transform 100 μL DH5α chemical competent cells. The correct mutation made by this procedure was finally confirmed by DNA sequencing. CHO-K1 cells (ATCC® CCL-61™) were grown in DMEM-F12 mixed medium (1:1) supplemented with 10% FBS and maintained in standard conditions (saturated humidity, 37°C, 5% CO2). Channel plasmid was co-transfected with pEGFP-N1 (encodes the green fluoresence protein) into CHO-K1 cells using lipofectamine 2000 following the manufacturer’s instructions. 4–6 h after transfection, cells were seeded onto poly-lysine (PLL) coated coverslips, and 24–36 h later, transfected cells were ready for patch-clamp analysis. It should be note that KV4.2 and its mutants were also co-expressed with hKChIP1 to promote their functional expressions.
(§2) Whole-cell patch clamp recording was performed in an electrophysiology platform equipped with MultiClamp 700B amplifier and Axon Digidata 1550 AD/DA convertor (Axon Instruments, Irvine, CA, United States). Data were acquired using the pClamp software (Axon Instruments, Irvine, CA, United States). All experiments were performed at room temperature. The bath solution contains (in mM): 140 NaCl, 5 KCl, 1 MgCl2, 2 CaCl2, 10 glucose, and 10 HEPES (pH = 7.3). The pipette solution contains (in mM): 140 KCl, 2.5 MgCl2, 11 EGTA, and 10 HEPES (pH = 7.3). Series resistance was kept below 10 MΩ and compensated to 80%. The concentration–response curves were fitted by a Hill logistic equation to estimate the potency (IC50) of the toxin. The whole cell conductance (G) at each depolarizing voltage (V) was determined using the equation: G = I/(V−Vrev), where I and Vrev represents the current amplitude and the reversal potential, respectively. In the present study, Vrev for K^+ current is determined to be −85.61 mV using the Nernst equation. G-V curve was obtained by plotting the normalized G as a function of V and fitted by the Boltzmann equation: y = 1/{1 + exp [(Va−V)/K]}, in which Va, V, and K represents half-maximum activation voltage, test voltage and slope factor, respectively. The steady-state fast inactivation of KV4 channels was measured using a classical two-pulses protocol: cell was held at −120 mV, and a train of conditional voltages (−120–40 mV, in 10 mV increment, 1,000 ms) were applied to induce channel inactivation, followed by a +60 mV test pulse (300 ms) to assess the proportion of non-inactivated channels; the sweep interval was set to 10 s. Currents at the test pulse (I) were normalized to the maximum value (Imax) and plotted as a function of the conditional voltage (V), the curve was fitted by the Boltzmann equation: I/Imax = A + (1−A)/{1 + exp [(V−Vh)/K]}, where Vh is the half-maximum inactivation voltage, A represents the minimum channel availability, and K is the slope factor. Gating currents of KV4.1–4.3 channels were measured as previously reported ([Tilley et al., 2019]). Briefly, the ionic pore currents were abolished by replacing K^+ with NMDG^+ in the pipette solution, and 10 µM Cs^+ was present in the bath solution to occupy the selectivity filter of KV channels to prevent decay of the gating currents during recording.
(§3) Data were presented as MEAN ± SEM, n represents the number of separate experimental cells. Data were analyzed using the software Clampfit 10.5 (Axon Instruments, Irvine, CA, United States), Graphpad Prism 5.01 (GraphPad Software, La Jolla, CA, United States) and Excel 2010 (Microsoft Corporation, Redmond, WA, United States). […]

[2] = tested on: KV4.1/K283D mutant; experiment: Whole-cell patch clamp, KV4.1/K283D in CHO-K1 cells; format: cell-based, mouse
Description: as §1, §2, §3

[3] = tested on: KV4.2/280PK (T280P/D281K double mutant); experiment: Whole-cell patch clamp, KV4.2/280PK (with hKChIP1) in CHO-K1 cells; format: cell-based, rat
Description: as §1, §2, §3

[4] = tested on: KV4.3/N278K mutant; experiment: Whole-cell patch clamp, KV4.3/N278K in CHO-K1 cells; format: cell-based, rat
Description: as §1, §2, §3

[5] = tested on: KV4.1/279LF/AA mutant; experiment: Whole-cell patch clamp, KV4.1/279LF/AA in CHO-K1 cells; format: cell-based, mouse; settings: KV4.1/279LF/AA at Va depolarizing voltage, n = 5–7
Description: (§4) The cDNA of hKV1.1, hKV1.3, rKV1.4, hKV1.5, rKV2.1, hKV3.1–3.4, mKV4.1, rKV4.2, and rKV4.3 were subcloned in the eukaryotic expression vector pCDNA3.1 or pCMV-blank. Channel mutants were made by a site-directed mutation method. Briefly, a pair of oppositely directed primers with 15 bp overlap at their 5′ ends and the designed mutation site were used to amplify the parental channel plasmid, then the PCR mix was treated with DpnI to remove the template. 10 μL digestion mix was directly used to transform 100 μL DH5α chemical competent cells. The correct mutation made by this procedure was finally confirmed by DNA sequencing. […] 4–6 h after transfection, cells were seeded onto poly-lysine (PLL) coated coverslips, and 24–36 h later, transfected cells were ready for patch-clamp analysis. […]
(§5) Whole-cell patch clamp recording was performed in an electrophysiology platform equipped with MultiClamp 700B amplifier and Axon Digidata 1550 AD/DA convertor (Axon Instruments, Irvine, CA, United States). […] The whole cell conductance (G) at each depolarizing voltage (V) was determined using the equation: G = I/(V−Vrev), where I and Vrev represents the current amplitude and the reversal potential, respectively. In the present study, Vrev for K^+ current is determined to be −85.61 mV using the Nernst equation. […] Gating currents of KV4.1–4.3 channels were measured as previously reported ([Tilley et al., 2019]). […]

[6] = tested on: KV4.2/277LV/AA mutant; experiment: Whole-cell patch clamp, KV4.2/277LV/AA (with hKChIP1) in CHO-K1 cells; format: cell-based, rat; settings: KV4.2/277LV/AA at Va depolarizing voltage, n = 5–7
Description: as §4, §5

[7] = tested on: KV4.3/274LV/AA mutant; experiment: Whole-cell patch clamp, KV4.3/274LV/AA in CHO-K1 cells; format: cell-based, rat; settings: KV4.3/274LV/AA at Va depolarizing voltage, n = 5–7
Description: as §4, §5

[8] = tested on: KV4.1/F280V mutant; experiment: Whole-cell patch clamp, KV4.1/F280V in CHO-K1 cells; format: cell-based, mouse; settings: +30 mV, n = 5
Description: as §4, §5

[9] = tested on: KV4.1/V281M mutant; experiment: Whole-cell patch clamp, KV4.1/V281M in CHO-K1 cells; format: cell-based, mouse; settings: +30 mV, n = 5
Description: as §4, §5

[10] = tested on: KV2.1 channel (rKV2.1); experiment: Whole-cell patch clamp selectivity, KV2.1; format: cell-based, rat; settings: KV2.1, 10 µM, n = 5
Description: as §4, §5

[11] = tested on: KV4.1 channel gating currents; experiment: Gating current recording, KV4.1; format: cell-based, mouse; settings: KV4.1, n = 5–6
Description: as §4, §5

[12] = 10 μM κ-LhTx-1, G-V, mean ± SEM, n = 6
[13] = 10 μM κ-LhTx-1, two-pulse protocol, mean ± SEM, n = 6
[14] = Va shift by 10 μM κ-LhTx-1 vs control, mean ± SEM
[15] = Vh shift by 10 μM κ-LhTx-1 vs control, mean ± SEM
[16] = 10 μM κ-LhTx-1, G-V, mean ± SEM, n = 5
[17] = 10 μM κ-LhTx-1, two-pulse protocol, mean ± SEM, n = 5

With `CC[C@H](C)[C@@H]1NC(=O)[C@H](CCC(N)=O)NC(=O)[C@@H]2CSSC[C@@H]3NC(=O)[C@H](CC(C)C)NC(=O)[C@H](CC(N)=O)NC(=O)[C@H](CCSC)NC(=O)[C@H](Cc4c[nH]c5ccccc45)NC(=O)[C@H](CO)NC(=O)[C@H](C)NC(=O)[C@@H](NC(=O)[C@H](CCC(=O)O)NC(=O)[C@H](CCC(N)=O)NC(=O)[C@H](C)NC(=O)[C@H](CC(=O)O)NC(=O)[C@@H](N)CCC(=O)O)CSSC[C@H](NC(=O)[C@H](CSSC[C@@H](C(=O)N[C@@H](CCCCN)C(=O)N[C@@H](Cc4ccc(O)cc4)C(=O)N[C@@H](CCCCN)C(=O)N[C@@H](CC(C)C)C(N)=O)NC(=O)[C@H](Cc4c[nH]c5ccccc45)NC1=O)NC(=O)[C@H](CCCCN)NC(=O)[C@H](CCCCN)NC(=O)[C@H](CCC(=O)O)NC(=O)CNC3=O)C(=O)N[C@@H](CCC(=O)O)C(=O)NCC(=O)N[C@@H](Cc1ccc(O)cc1)C(=O)N[C@@H](C(C)C)C(=O)N2` [κ-LhTx-1] (H-EDAQECASWMNLCGEKKCCEGYVCQIWCKYKL-NH2; disulfide 6-19, 13-24, 18-28 (inferred); N-terminus and C-terminus assumed) the “Va (steady-state activation)” value [1, 12] was 52.55 ± 1.38 mV, the “k, slope factor (steady-state activation)” value [1, 12] was 18.09 ± 0.43 mV and the “Vh (steady-state inactivation)” value [1, 13] was -29.12 ± 1.84 mV. The “k, slope factor (steady-state inactivation)” value [1, 13] was 10.73 ± 0.41 mV, the “∆Va and inhi%(min) vs wild-type KV4.1” value ([1]; 10 μM, close to values of KV4.2/KV4.3) was “significantly reduced compared with those for KV4.1” and the “∆Va (steady-state activation)” value [1, 14] was 52.58 ± 1.86 mV. For the same compound, the “∆Vh (steady-state inactivation)” value [1, 15] was 26.75 ± 2.85 mV, the “∆Va and inhi%(min) vs wild-type KV4.1” value ([2]; 10 μM) was “unchanged ∆Va and inhi%(min)” and the “Va (steady-state activation)” value [2, 16] was 91.34 ± 3.47 mV. For the same compound, the “k, slope factor (steady-state activation)” value [2, 16] was 17.49 ± 1.57 mV, the “Vh (steady-state inactivation)” value [2, 17] was -36.39 ± 3.03 mV and the “k, slope factor (steady-state inactivation)” value [2, 17] was 19.23 ± 1.48 mV. The “potency vs wild-type KV4.1” value ([2]; +30 mV, n = 5) was “only slightly reduced κ-LhTx-1 potency”, the “∆Va (steady-state activation)” value [2, 14] was 103.10 ± 4.22 mV and the “∆Vh (steady-state inactivation)” value [2, 15] was 24.74 ± 3.63 mV. The “∆Va and inhi%(min) vs KV4.1” value ([3]; 10 μM) was “not significantly different from those in KV4.1”, the “Va (steady-state activation)” value [3, 12] was 82.17 ± 1.67 mV and the “k, slope factor (steady-state activation)” value [3, 12] was 13.22 ± 1.15 mV. For the same compound, the “Vh (steady-state inactivation)” value [3, 17] was -9.93 ± 2.94 mV, the “k, slope factor (steady-state inactivation)” value [3, 17] was 11.46 ± 1.10 mV and the “∆Va (steady-state activation)” value [3, 14] was 102.8 ± 3.22 mV. For the same compound, the “∆Vh (steady-state inactivation)” value [3, 15] was 43.66 ± 3.77 mV, the “Va (steady-state activation)” value [4, 12] was 68.62 ± 1.73 mV and the “k, slope factor (steady-state activation)” value [4, 12] was 18.03 ± 0.87 mV. For the same compound, the “Vh (steady-state inactivation)” value [4, 17] was -17.01 ± 1.57 mV, the “k, slope factor (steady-state inactivation)” value [4, 17] was 10.75 ± 0.63 mV and the “voltage-dependence of inhibition vs parental KV4.3” value ([4]; 10 μM, still greater than in KV4.1) was “much less voltage-dependence”. For the same compound, the “∆Va (steady-state activation)” value [4, 14] was 59.97 ± 2.64 mV, the “∆Vh (steady-state inactivation)” value [4, 15] was 30.24 ± 1.80 mV and the “effect of mutation on toxin inhibition” value [5] was “profoundly weakened the effect”. The “effect of mutation on toxin inhibition” value [6] was “profoundly weakened the effect”, the “effect of mutation on toxin inhibition” value [7] was “profoundly weakened the effect” and the “potency vs wild-type KV4.1” value [8] was “only slightly reduced κ-LhTx-1 potency”. The “potency vs wild-type KV4.1” value [9] was “only slightly reduced κ-LhTx-1 potency”, the effect on currents [10] was “did not remarkably affect the currents” and the gating current inhibition [11] was “inhibited the gating currents”.
